According to ChEMBL document CHEMBL3804811 (J Med Chem, 2016):

Assay: Antiproliferative activity against human SUP-M2 cells expressing ALK protein incubated for 72 hrs by cell titer-glo assay
Format: functional, cell-based
Conditions: SUP-M2, 72 h

In the case of CN1CCN(c2ccc(C(=O)Nc3n[nH]c4ccc(Cc5cc(F)cc(F)c5)cc34)c(NC3CCOCC3)c2)CC1 [ENTRECTINIB], the IC50 is reported as 41 nM.
